Source: patent US20140275197A1, “ALPHA-2 ADRENERGIC AGONIST FOR TREATING INTRAOCULAR PRESSURE AND OCULAR DISEASES THROUGH INTRAVITREAL AND INTRACAMERAL ROUTES” (priority 2013, published 2014)
“Also recorded” adds a separate entry of the source.

What was measured:
[1] = cited from earlier work
[2] = in vivo
[3] = rat, in vivo, po; cited from earlier work
dutch belted rabbits [4] = assay: Intraocular pressure lowering after bolus intracameral (IC) injection at equimolar concentration; format: in vivo, rabbit
From the text: Due to the chemical similarity and the pharmacokinetics profile of brimonidine, 4-bromo-N-imidazolidin-2-ylidene-1-H-benzimidazol-5-amine and dexmedetomidine, it would be expected for these molecules to have a similar behavior following intravitreal bolus injection into the back of the eye.

dutch belted rabbits [5] = assay: Intraocular pressure lowering after intravitreal (IVT) injection at equimolar concentration; format: in vivo, rabbit
[6] = increasing amount of brimonidine

| Structure (SMILES) | clearance from the aqueous humor ([1]; following topical dosing) | passage through cornea and sclera ([1]; following topical dosing) | effect of increasing the amount on half life in the aqueous humor [1, 6] | effect of increasing the amount on systemic exposure [1, 6] | level in the systemic circulation [2] | time for which the level in the aqueous humor is maintained [2] | amount found in urine [3] | potency versus brimonidine and dexmedetomidine (dutch belted rabbits [4]; administered intracamerally at equimolar concentration, normotensive rabbits) | IOP decrease compared with brimonidine and dexmedetomidine (dutch belted rabbits [4]; bolus intracameral injection, equimolar concentration, rabbits) | IOP decrease compared with brimonidine and dexmedetomidine (dutch belted rabbits [5]) |
| --- | --- | --- | --- | --- | --- | --- | --- | --- | --- | --- |
| Brc1c(NC2=NCCN2)ccc2nccnc12 [brimonidine, (5-bromo-quinoxalin-6-yl)-imidazolidin-2-ylidene-amine] | rapidly cleared | readily pass through the cornea and sclera | does not improve its half life | increased systemic exposure |  |  |  |  |  |  |
| Brc1c(N=C2NCCN2)ccc2[nH]cnc12 [4-bromo-N-imidazolidin-2-ylidene-1-H-benzimidazol-5-amine] |  |  |  |  | undetectable levels | ≥ 8 h | trace amounts | at least 50 fold | more efficacious at decreasing lop than brimonidine and dexmedetomidine; also recorded: outperforms brimonidine; also recorded: more effective than brimonidine and dexmedetomidine | more efficacious at decreasing IOP than brimonidine and dexmedetomidine; also recorded: outperforms brimonidine; also recorded: more potent and efficacious than brimonidine |
| Nc1cc(Cl)c(N=C2NCCN2)c(Cl)c1 [apraclonidine, 2,6-dichloro-N-imidazolidin-2-ylidene-benzene-1,4-diamine] | rapidly cleared |  |  |  |  |  |  |  |  |  |
